Source: the supplement of paper PMC10307832

How the values were obtained:
Test in all cases: relative viability (nuclei count vs DMSO), 5 days (fraction); higher = more cells survive
YM155 + Navitoclax = compound: COCC[n+]1c2c(n(Cc3cnccn3)c1C)C(=O)c1ccccc1C2=O [YM155] + CC1(C)CCC(c2ccc(Cl)cc2)=C(CN2CCN(c3ccc(C(=O)NS(=O)(=O)c4ccc(N[C@H](CCN5CCOCC5)CSc5ccccc5)c(S(=O)(=O)C(F)(F)F)c4)cc3)CC2)C1 [Navitoclax] (partner 0.5 µM)
Outline: (§1)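 Values are medians from duplicate plates. Each reflects relative viability, defined as the nuclei count of treated wells over that of vehicle wells. Lung cancer cell lines in 1536-well plates were pin-tool dosed one day after seeding with one drug alone or with a fixed anchor-drug dose plus five library-drug doses (not always all listed) in √10 steps, then fixed, stained and imaged at 4× after 5 days.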

YM155 + Decitabine = compound: COCC[n+]1c2c(n(Cc3cnccn3)c1C)C(=O)c1ccccc1C2=O [YM155] + Nc1ncn([C@H]2C[C@H](O)[C@@H](CO)O2)c(=O)n1 [Decitabine] (partner 2 µM)
Outline: as §1

Quizartinib + Foretinib = compound: CC(C)(C)c1cc(NC(=O)Nc2ccc(-c3cn4c(n3)sc3cc(OCCN5CCOCC5)ccc34)cc2)no1 [Quizartinib] + COc1cc2c(Oc3ccc(NC(=O)C4(C(=O)Nc5ccc(F)cc5)CC4)cc3F)ccnc2cc1OCCCN1CCOCC1 [Foretinib] (partner 0.25 µM)
Outline: as §1

Quizartinib + Decitabine = compound: CC(C)(C)c1cc(NC(=O)Nc2ccc(-c3cn4c(n3)sc3cc(OCCN5CCOCC5)ccc34)cc2)no1 [Quizartinib] + Nc1ncn([C@H]2C[C@H](O)[C@@H](CO)O2)c(=O)n1 [Decitabine] (partner 2 µM)
Outline: as §1

Row | Cell Line | relative viability (YM155 + Navitoclax; first compound 0.002 µM) | relative viability (YM155 + Navitoclax; first compound 0.006325 µM) | relative viability (YM155 + Navitoclax; first compound 0.02 µM) | relative viability (YM155 + Navitoclax; first compound 0.06325 µM) | relative viability (YM155 + Decitabine; first compound 0.002 µM) | relative viability (YM155 + Decitabine; first compound 0.006325 µM) | relative viability (YM155 + Decitabine; first compound 0.02 µM) | relative viability (YM155 + Decitabine; first compound 0.06325 µM) | relative viability (Quizartinib + Foretinib; first compound 0.001 µM) | relative viability (Quizartinib + Foretinib; first compound 0.003162 µM) | relative viability (Quizartinib + Foretinib; first compound 0.01 µM) | relative viability (Quizartinib + Foretinib; first compound 0.03162 µM) | relative viability (Quizartinib + Foretinib; first compound 0.1 µM) | relative viability (Quizartinib + Decitabine; first compound 0.001 µM) | relative viability (Quizartinib + Decitabine; first compound 0.003162 µM) | relative viability (Quizartinib + Decitabine; first compound 0.01 µM) | relative viability (Quizartinib + Decitabine; first compound 0.03162 µM) | relative viability (Quizartinib + Decitabine; first compound 0.1 µM)
1 | NCI-H322M | 1.24 | 1.23 | 1.28 | 1.47 | 0.689 | 0.722 | 0.7 | 0.753 | 0.86 | 0.939 | 0.939 | 0.851 | 0.954 | 0.685 | 0.653 | 0.681 | 0.72 | 0.763
2 | NCI-H441 | 0.56 | 0.633 | 0.554 | 0.403 | 0.277 | 0.243 | 0.248 | 0.189 | 1.23 | 0.923 | 1.13 | – | 0.914 | 0.236 | 0.247 | 0.213 | 0.238 | 0.278
3 | NCI-H460 | 1.17 | 1.23 | 1.27 | 0.903 | 0.496 | 0.503 | 0.477 | 0.475 | 0.916 | 0.961 | 1.03 | 0.652 | 0.976 | – | 0.454 | 0.613 | – | 0.459
4 | NCI-H520 | 1.15 | 0.991 | 1.07 | 1.03 | 0.469 | 0.531 | 0.531 | 0.397 | 0.81 | 0.636 | 0.894 | 0.722 | 0.541 | – | 0.449 | 0.501 | 0.542 | 0.462
5 | NCI-H596 | – | 0.972 | 1.09 | 1.03 | 0.886 | 1 | 1.02 | 1.04 | 0.925 | 0.816 | 0.949 | 0.903 | 0.754 | 1.03 | 0.938 | 1.09 | 0.993 | 0.901
6 | NCI-H647 | 0.947 | 1.17 | 0.855 | 0.442 | 0.482 | 0.405 | 0.288 | 0.272 | 0.818 | 1.09 | 1.1 | 1.16 | 1.17 | 0.32 | 0.369 | 0.437 | 0.405 | 0.549
7 | NCI-H727 | 0.479 | 0.382 | 0.39 | 0.48 | 0.871 | 1.01 | 0.867 | 0.857 | 0.71 | 0.877 | 0.838 | 0.801 | 0.871 | 0.781 | 0.829 | 0.933 | 0.831 | 1.29
8 | NCI-H838 | 1.04 | 1.21 | 1.22 | 0.791 | 0.423 | 0.471 | 0.399 | 0.383 | 0.991 | 1.01 | 0.99 | 0.938 | 0.684 | 0.418 | 0.48 | 0.478 | 0.466 | 0.388
9 | NCI-H1355 | 0.947 | 1.08 | 1.08 | 1.04 | 0.312 | 0.374 | 0.383 | 0.357 | 0.917 | 0.957 | 0.936 | 0.814 | 1.06 | 0.346 | 0.349 | 0.338 | 0.331 | 0.36
